Measurements: PubChem BioAssay (NCI)
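The concentration for 50% growth inhibition is given as GI50. TGI: concentration producing complete growth inhibition.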

Tests used:
Assay in all cases: inhibition of tumour cell growth, NCI panel, 384-well format
[1] = test system: EKVX NSCLC
[2] = test system: OVCAR-5 ovarian
[3] = test system: 786-0 renal
[4] = test system: MDA-MB-435 melanoma
[5] = test system: NCI-H322M lung
[6] = test system: NCI/ADR-RES ovarian
[7] = test system: NCI-H23 lung
[8] = test system: SNB-75 CNS
[9] = test system: RXF 393 renal
[10] = test system: MALME-3M melanoma
[11] = test system: HCC-2998 colon
[12] = test system: A498 renal
[13] = test system: UO-31 renal

COC(=O)c1ccc([C@H]2c3[nH]c4ccccc4c3C[C@H](C(=O)OC)N2C(=O)CCl)cc1
GI50 [1]: < 10 nM
TGI [1]: 22.4 nM
GI50 [2]: 289 nM
TGI [2]: 1580 nM
GI50 [3]: 10.4 nM
TGI [3]: 25 nM
GI50 [4]: 346 nM
TGI [4]: 1570 nM
GI50 [5]: 1140 nM
TGI [5]: 2420 nM
GI50 [6]: 25.1 nM
TGI [6]: 102 nM
GI50 [7]: < 10 nM
TGI [7]: 12 nM
GI50 [8]: 18.5 nM
TGI [8]: 41.4 nM
GI50 [9]: < 10 nM
TGI [9]: 15.2 nM
GI50 [10]: 14.8 nM
TGI [10]: 29 nM
GI50 [11]: 30.3 nM
TGI [11]: 177 nM
GI50 [12]: 20.5 nM
TGI [12]: 43.8 nM
GI50 [13]: < 10 nM
TGI [13]: < 10 nM
